Experimental data from patent publication US12042472B2 (pHase Pharmaceuticals LLC, priority 2017, dated 2024).

Test: in vivo
Conditions: for concentration at 0.033 h: Day 1, hour 0.033, LLQ 1 ng/mL
Method: Using a standard, by weight, randomization procedure, 21 male animals (weighing 3.25 to 3.73 kg at randomization), from a total of 36 male experimentally naïve New Zealand White Hra:(NZW)SPF albino rabbits (approximately 6 to 7 months of age), were assigned to the study as presented in Table 5.
To induce an anaphylactic syndrome, animals in Groups 1 to 4 were administered horse serum (0.2μ sterile filtered) via subcutaneous (“SC”) injection at dose volume of 2 mL/animal, followed two days later by an intravenous (“IV”) injection at a dose volume of 2 mL/animal.
Forty-one to 44 days following the beginning of the induction period, the animals were sedated by administration of 2 to 3 mg/kg via IM injection of acepromazine, 0.02 mg/kg via IM injection of buprenorphine and sevoflurane via inhalation.
Following induction of anesthesia, all animals were placed in dorsal recumbency position and an incision was made to locate the right or left femoral artery. An arterial sheath was introduced and advanced into the isolated artery and used to monitor blood pressure. Additionally, an off midline cervical neck incision was made to locate and isolate the left or right external jugular vein for collection of blood and for emergency drug administration, as needed.
Following induction of anesthesia and catheter placement, single or repeated challenge doses of 0.5 to 2 mL of filtered horse serum were administered intravenously to each animal in Groups 1 to 4.
Prior to tablet administration, the mouth of the animal was wet with 0.5 mL of tap water and the mouth was held shut for 15 to 30 seconds to help dissolve the tablet. For IM administration, the injections were made in the right rear flank of each animal.
Each 50 μL aliquot of standard, QC sample, and study sample was mixed with 200 μL of working internal standard solution (25 ng/mL in acetonitrile/methanol (50/50, v/v)). The sample was centrifuged, and a 200 μL aliquot of the resulting supernatant was transferred to a clean 96-well plate. The sample was evaporated and reconstituted with […] of water/formic acid (100/0.1, v/v). An aliquot was injected onto an LC-MS/MS system for analysis.
The liquid chromatography system used an ACE 5 C18 column, 50×2.1 mm (5 μm particle size) with an isocratic flow consisting of water/formic acid (100/0.1, v/v) and methanol/formic acid (100/0.05, v/v) at a flow rate of 400 μL/minute. The analyte and internal standard were detected using an SCIEX API 5000 triple quadrupole LC-MS/MS system equipped with an ESI (TurboIonSpray®) ionization source operated in the positive ion mode.
The lower limit of quantitation was 1 ng/ml and a linear 1/x2 weighting regression analysis was used.
Concentrations less than the lower limit of quantitation (LLOQ, <1.00 ng/mL) were reported as and set to zero. For each animal, the following pharmacokinetic parameters were determined: maximum observed plasma concentration (Cmax), time of maximum observed plasma concentration (Tmax), and area under the plasma concentration-time curve (AUC).
The formulation ratio was calculated using the following formula: Formulation Ratio=Mean AUC0-60 min Buccal Citrate÷Mean AUC0-60 min Buccal No citrate. The Induced Anaphylaxis to Non-induced anaphylaxis ratio was calculated using the following formula: Induced Anaphylaxis:Non-Induced Anaphylaxis=Mean AUC0-60 min Induced Anaphylaxis IM÷Mean AUC0-60 min Non-induced Anaphylaxis IM. Relative bioavailability (expressed as a percent) was calculated using the following formula: Relative Bioavailability=[AUC0-60 min/DoseBuccal (citrate and/or no citrate)]÷[AUC0-60 min/DoseIntramuscular (induced and/or non-induced)]*100.

With `CNC[C@H](O)c1ccc(O)c(O)c1` [Epinephrine] the “Concentration (ng/mL), plasma epinephrine” value (Group 7, dose 0.3 mg, subject 701, male, Day 1, hour 0.333, LLQ 2 ng/mL) was “BLQ”, the concentration at 0 h (male, New Zealand White Hra:(NZW)SPF, rabbit, plasma, intramuscular, 0.3 mg, Concentration (ng/mL), plasma epinephrine, Group 7, dose 0.3 mg, subject 701, male, Day 1, hour 0, LLQ 2 ng/mL) was 2.48 ng/mL and the concentration at 0.033 h (male, New Zealand White Hra:(NZW)SPF, rabbit, plasma, intramuscular, 0.3 mg, Concentration (ng/mL), plasma epinephrine, Group 7, dose 0.3 mg, subject 701, male) was 2.75 ng/mL. The concentration at 0.083 h (male, New Zealand White Hra:(NZW)SPF, rabbit, plasma, intramuscular, 0.3 mg, Concentration (ng/mL), plasma epinephrine, Group 7, dose 0.3 mg, subject 701, male, Day 1, hour 0.083, LLQ 2 ng/mL) was 4.32 ng/mL, the concentration at 0.125 h (male, New Zealand White Hra:(NZW)SPF, rabbit, plasma, intramuscular, 0.3 mg, Concentration (ng/mL), plasma epinephrine, Group 7, dose 0.3 mg, subject 701, male, Day 1, hour 0.125, LLQ 2 ng/mL) was 5.73 ng/mL and the concentration at 0.167 h (male, New Zealand White Hra:(NZW)SPF, rabbit, plasma, intramuscular, 0.3 mg, Concentration (ng/mL), plasma epinephrine, Group 7, dose 0.3 mg, subject 701, male, Day 1, hour 0.167, LLQ 2 ng/mL) was 4.76 ng/mL. The concentration at 0.25 h (male, New Zealand White Hra:(NZW)SPF, rabbit, plasma, intramuscular, 0.3 mg, Concentration (ng/mL), plasma epinephrine, Group 7, dose 0.3 mg, subject 701, male, Day 1, hour 0.25, LLQ 2 ng/mL) was 2.44 ng/mL, the concentration at 0.5 h (male, New Zealand White Hra:(NZW)SPF, rabbit, plasma, intramuscular, 0.3 mg, Concentration (ng/mL), plasma epinephrine, Group 7, dose 0.3 mg, subject 701, male, Day 1, hour 0.5, LLQ 2 ng/mL) was 2.06 ng/mL and the concentration at 0.75 h (male, New Zealand White Hra:(NZW)SPF, rabbit, plasma, intramuscular, 0.3 mg, Concentration (ng/mL), plasma epinephrine, Group 7, dose 0.3 mg, subject 701, male, Day 1, hour 0.75, LLQ 2 ng/mL) was 2.84 ng/mL. It also gave a concentration at 1 h (male, New Zealand White Hra:(NZW)SPF, rabbit, plasma, intramuscular, 0.3 mg, Concentration (ng/mL), plasma epinephrine, Group 7, dose 0.3 mg, subject 701, male, Day 1, hour 1, LLQ 2 ng/mL) of 3.1 ng/mL, a concentration at 0 h (male, New Zealand White Hra:(NZW)SPF, rabbit, plasma, intramuscular, 0.3 mg, Concentration (ng/mL), plasma epinephrine, Group 7, dose 0.3 mg, subject 703, male, Day 1, hour 0, LLQ 1 ng/mL) of 1.92 ng/mL and a concentration at 0.033 h (male, New Zealand White Hra:(NZW)SPF, rabbit, plasma, intramuscular, 0.3 mg, Concentration (ng/mL), plasma epinephrine, Group 7, dose 0.3 mg, subject 703, male) of 8.06 ng/mL. For the same compound, the concentration at 0.083 h (male, New Zealand White Hra:(NZW)SPF, rabbit, plasma, intramuscular, 0.3 mg, Concentration (ng/mL), plasma epinephrine, Group 7, dose 0.3 mg, subject 703, male, Day 1, hour 0.083, LLQ 1 ng/mL) was 6.6 ng/mL, the concentration at 0.125 h (male, New Zealand White Hra:(NZW)SPF, rabbit, plasma, intramuscular, 0.3 mg, Concentration (ng/mL), plasma epinephrine, Group 7, dose 0.3 mg, subject 703, male, Day 1, hour 0.125, LLQ 1 ng/mL) was 3.53 ng/mL and the concentration at 0.167 h (male, New Zealand White Hra:(NZW)SPF, rabbit, plasma, intramuscular, 0.3 mg, Concentration (ng/mL), plasma epinephrine, Group 7, dose 0.3 mg, subject 703, male, Day 1, hour 0.167, LLQ 1 ng/mL) was 2.32 ng/mL. It also gave a concentration at 0.25 h (male, New Zealand White Hra:(NZW)SPF, rabbit, plasma, intramuscular, 0.3 mg, Concentration (ng/mL), plasma epinephrine, Group 7, dose 0.3 mg, subject 703, male, Day 1, hour 0.25, LLQ 1 ng/mL) of 3.5 ng/mL, a concentration at 0.333 h (male, New Zealand White Hra:(NZW)SPF, rabbit, plasma, intramuscular, 0.3 mg, Concentration (ng/mL), plasma epinephrine, Group 7, dose 0.3 mg, subject 703, male, Day 1, hour 0.333, LLQ 1 ng/mL) of 3.78 ng/mL and a concentration at 0.5 h (male, New Zealand White Hra:(NZW)SPF, rabbit, plasma, intramuscular, 0.3 mg, Concentration (ng/mL), plasma epinephrine, Group 7, dose 0.3 mg, subject 703, male, Day 1, hour 0.5, LLQ 1 ng/mL) of 2.86 ng/mL. For the same compound, the concentration at 0.75 h (male, New Zealand White Hra:(NZW)SPF, rabbit, plasma, intramuscular, 0.3 mg, Concentration (ng/mL), plasma epinephrine, Group 7, dose 0.3 mg, subject 703, male, Day 1, hour 0.75, LLQ 1 ng/mL) was 5.36 ng/mL, the concentration at 1 h (male, New Zealand White Hra:(NZW)SPF, rabbit, plasma, intramuscular, 0.3 mg, Concentration (ng/mL), plasma epinephrine, Group 7, dose 0.3 mg, subject 703, male, Day 1, hour 1, LLQ 1 ng/mL) was 5.17 ng/mL and the concentration at 0 h (male, New Zealand White Hra:(NZW)SPF, rabbit, plasma, intramuscular, 0.3 mg, Concentration (ng/mL), plasma epinephrine, Subject Group 3, dose 0.3 mg, male rabbits, Day 1, Hour 0) was 2.29 ng/mL. For the same compound, the concentration at 1 h (male, New Zealand White Hra:(NZW)SPF, rabbit, plasma, other: sublingual/buccal tablet, 35 mg, Concentration (ng/mL), plasma epinephrine, Group 2, dose 35 mg, subject 306, male, Day 1, hour 1, LLQ 2 ng/mL) was 10.6 ng/mL.
